Measured values as given in US20230149507A1, “TREATMENT OF ALT CANCERS” (INSTITUTO DE MEDICINA MOLECULAR JOÃO LOBO ANTUNES, priority 2019, published 2023).

Columns and labels:
[1] = tested on: U-2 OS cells; test: Single molecule analysis of telomeric extension events (SMAT) in cells overexpressing FANCM variants; format: cell-based, human; conditions: overexpression
Excerpt: (a) Schematic of FANCM domain interactions, mutations or deletions. For clarity, domains have been color coded by functional role (bottom panel). (b) Quantitation of metaphase-TIFs in U-2 OS cells stably overexpressing wild-type (FANCM+) or FANCM mutants. Scatterplot bars represent the mean±SEM. Out of 3 experiments, n≥110 metaphases scored for each mutant, *p<0.05, **p<0.005, Mann-Whitney test. (c) Quantitation of fragile telomeres in U-2 OS cells stably overexpressing wild-type (FANCM+) or FANCM mutants. Scatterplot bars represent the mean±SEM. Out of 3 experiments, n>100 metaphases scored for each mutant, *p<0.05, **p<0.005, Mann-Whitney test. (d) Representative dot blots and quantitation of C-circle assays in U-2 OS cells stably overexpressing wild-type (FANCM+) or FANCM domain mutants. C-circles were normalized to the mean of vector control. Error bars represent mean±SEM from n=3 experiments, *p<0.05, **p<0.005, Student's t-test. […]
Cells were labelled with 100 μM CIdU for 5 h prior to harvesting by trypsinization. […] Halogenated nucleotides were detected with a rat anti-CldU monoclonal antibody (Accurate) and Alexa Fluor 488-conjugated goat anti-rat antibody (Molecular Probes). Telomere fibers were detected on a Zeiss Axio Imager microscope with ApoTome module and analyzed with Zen software (Zeiss).

[2] = tested on: U-2 OS cells; test: Fragile telomeres in cells overexpressing FANCM variants; format: cell-based, human; conditions: stable overexpression
Excerpt: (a) Schematic of FANCM domain interactions, mutations or deletions. For clarity, domains have been color coded by functional role (bottom panel). (b) Quantitation of metaphase-TIFs in U-2 OS cells stably overexpressing wild-type (FANCM+) or FANCM mutants. Scatterplot bars represent the mean±SEM. Out of 3 experiments, n≥110 metaphases scored for each mutant, *p<0.05, **p<0.005, Mann-Whitney test. (c) Quantitation of fragile telomeres in U-2 OS cells stably overexpressing wild-type (FANCM+) or FANCM mutants. Scatterplot bars represent the mean±SEM. Out of 3 experiments, n>100 metaphases scored for each mutant, *p<0.05, **p<0.005, Mann-Whitney test. (d) Representative dot blots and quantitation of C-circle assays in U-2 OS cells stably overexpressing wild-type (FANCM+) or FANCM domain mutants. C-circles were normalized to the mean of vector control. Error bars represent mean±SEM from n=3 experiments, *p<0.05, **p<0.005, Student's t-test. (e) Single molecule analysis of telomeric extension events (top panel) and length of extension events (bottom panel) in U-2 OS cells stably overexpressing wild-type (FANCM+) or FANCM domain mutants. Error bars represent mean±SEM of n≥350 fibers out of 3 experiments, *p<0.05, **p<0.005, Student's t-test.
Empty vector and wild-type FANCM (pCMV6-Myc-DDK) constructs were obtained from Origene Technologies. Wild type FANCM (SEQ ID NO: 2) and FANCM mutants (SEQ ID NOs: 19 to 28) were cloned into the pLenti-C-Myc-DDK-IRES-Neo backbone (Origene Technologies) by restriction enzyme subcloning of gene blocks synthesized by Integrated DNA Technologies (IDT). Lentivirus was produced by the Vector and Genome Engineering Facility (Children's Medical Research Institute). For stable overexpression, cells were transduced with lentivirus, allowed to recover for 24 h, and subject to G418 selection. Cells were maintained in G418 to ensure sustained overexpression.
Indirect IF and telomere FISH were performed on both interphase nuclei and metaphase spreads. For interphase IF experiments, cells were grown on coverslips or LabTek chamber slides (Thermo Scientific). Slides were prepared as described in Sobinoff et al., 2017. Cells on coverslips were washed twice with PBS, permeabilized with KCM buffer (120 mM KCl, 20 mM NaCl, 10 mM Tris pH 7.5, 0.1% Triton), washed again with PBST and PBS, then fixed with ice-cold 4% formaldehyde PBS solution at room temperature for 10 min. Coverslips were blocked with antibody-dilution buffer (20 mM Tris-HCl, pH 7.5, 2% (w/v) BSA, 0.2% (v/v) fish gelatin, 150 mM NaCl, 0.1% (v/v) Triton X-100 and 0.1% (w/v) sodium azide) and 0.1 mg/ml RNaseA for 30 min at 37° C. […]

For “FF>AA: FANCM mutant (SEQ ID NO: 25), double substitution F1232A/F1236A within the MM2 domain”, the “number of telomere extension events” value [1] was “significant increase in the number of extension events” and the “number of fragile telomeres (telomere fragility)” value [2] was “significantly increased”.

“K117R: FANCM mutant (SEQ ID NO: 20) substituted at K117R, DEAH domain disrupted” was tested, and the “number of fragile telomeres (telomere fragility)” value [2] was “failed to suppress the phenotypes”.
